Tests used:
[1] = test system: H1975 (EGFR L858R/T790M double mutation); assay: Cell antiproliferative assay (CTG, 72 h), H1975; assay type: cell-based, human
Outline: (§1)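 Viability by CTG luminescence after 72 h compound exposure, normalised between blank medium and 0.1% DMSO controls, with IC50 from fitted curves. Dosing in triplicate, top 10,000 nM, 4-fold dilutions, applied about 24 h after plating 1500-2500 cells per well.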

[2] = test system: PC-9 (EGFR exon 19 deletion); assay: Cell antiproliferative assay (CTG, 72 h), PC-9; assay type: cell-based, human
Outline: as §1

[3] = test system: HCC827 (exon 19 deletion mutation); assay: Cell antiproliferative assay (CTG, 72 h), HCC827; assay type: cell-based, human
Outline: as §1

[4] = target: T1, EGFR (Homo sapiens, UniProt P00533, DEL746-750); assay: EGFR PROTAC In Cell Western assay in HCC827; assay type: cell-based; conditions: HCC827, EGFR degradation, 16 hours of incubation
T1 construct: host or cells: HCC827
Excerpt: Test Example 2 EGFR PROTAC in Cell Western Assay
HCC827 cell culture medium was purchased from Corning. Cell line HCC827 was purchased from BeNa Culture Collection; EGF Receptor (D38B1) XP Rabbit mAb antibody and β-Actin (8H10D10) Mouse mAb antibody were from CST. IRDye 800CW, IRDye 680RD, and Intercept blocking solution (PBS) were purchased from Licor. Triton-100 was purchased from sigma, and 96-well black cell culture imaging microtiter plates were purchased from Agilent.
1) HCC827 cells were cell counted and cells were inoculated into 96-well black cell culture imaging microtiter plates at a density of 40,000 cells per well, with 100 μl per well. The plate was incubated overnight in a CO2 incubator.
2) Day 1: A gradient dilution of the compound to be tested was added to the cells of the culture plate (with a starting concentration of […], 9 concentrations, a dilution ratio of 1:3, 2 duplicate wells), with a final concentration of DMSO being 0.5%, and a blank control of DMSO without compound. The plate was placed in the cell culture incubator for a final 16 hours of incubation.
3) The culture medium was removed from the 96 wells with a pipette and the residual medium was washed with […] of PBS per well on a shaker for 5 min. After the removal of PBS, cells were quickly fixed by adding 150 μl of fresh fixation buffer (3.7% paraformaldehyde) and incubated for 20 min at room temperature.
4) The fixation buffer was removed and […] of Triton elution buffer (0.3% Triton-100) was added to wash for four times on a shaker for 5 minutes each time.
5)[…] LI-COR Odyssey blocking solution was added and the cells were incubated for 1.5 hours at room temperature with slow shaking on a shaker.
6) To block the samples, a primary antibody against EGFR and Actin were prepared using Antibody Dilution Buffer at a ratio of 1:300. The blocking solution was poured out and the diluted primary antibody was added (at a total volume of 50 μl/per well). The cell plate was covered and incubated at 4° C. overnight.
7) The cell plate was washed four times with PBS+Triton X-100 for 5 minutes each time.
8) Fluorescently labeled secondary antibodies IRDye® 680RD and IRDye® 800CW were diluted with Antibody Dilution Buffer (with a ratio of 1:600, at a total volume of 50 μl/well) and then incubated for one hour at room temperature, protected from light.
9) The cell plate was washed four times with PBS+Triton X-100 for 5 minutes each time.
After pipetting the PBS thoroughly, the plate was inverted and imaged on a Burroughs imager. A multiple exposure program was selected, IRDye 680RD Blot was chosen for the first channel, and IRDye 800CW Blot was chosen for the second channel. […] The blank group was the DMSO group, EGFR/Actin was calculated as the EGFR value of the corresponding sample wells, and the degradation rate=100-100*EGFR signal/DMSO signal. The DC50 and Dmax of the degraded EGFR proteins were calculated by fitting curves using the Prism software, 3-parameter method.

[5] = Homo sapiens, NCI-H1975, 72 h, Table 2, H1975 cells
[6] = Homo sapiens, PC-9, 72 h, Table 2, PC-9 cells
[7] = Homo sapiens, HCC827, 72 h, Table 2, HCC827 cells

T1 sequence (P00533 with tags, fused parts or gaps DEL746-750): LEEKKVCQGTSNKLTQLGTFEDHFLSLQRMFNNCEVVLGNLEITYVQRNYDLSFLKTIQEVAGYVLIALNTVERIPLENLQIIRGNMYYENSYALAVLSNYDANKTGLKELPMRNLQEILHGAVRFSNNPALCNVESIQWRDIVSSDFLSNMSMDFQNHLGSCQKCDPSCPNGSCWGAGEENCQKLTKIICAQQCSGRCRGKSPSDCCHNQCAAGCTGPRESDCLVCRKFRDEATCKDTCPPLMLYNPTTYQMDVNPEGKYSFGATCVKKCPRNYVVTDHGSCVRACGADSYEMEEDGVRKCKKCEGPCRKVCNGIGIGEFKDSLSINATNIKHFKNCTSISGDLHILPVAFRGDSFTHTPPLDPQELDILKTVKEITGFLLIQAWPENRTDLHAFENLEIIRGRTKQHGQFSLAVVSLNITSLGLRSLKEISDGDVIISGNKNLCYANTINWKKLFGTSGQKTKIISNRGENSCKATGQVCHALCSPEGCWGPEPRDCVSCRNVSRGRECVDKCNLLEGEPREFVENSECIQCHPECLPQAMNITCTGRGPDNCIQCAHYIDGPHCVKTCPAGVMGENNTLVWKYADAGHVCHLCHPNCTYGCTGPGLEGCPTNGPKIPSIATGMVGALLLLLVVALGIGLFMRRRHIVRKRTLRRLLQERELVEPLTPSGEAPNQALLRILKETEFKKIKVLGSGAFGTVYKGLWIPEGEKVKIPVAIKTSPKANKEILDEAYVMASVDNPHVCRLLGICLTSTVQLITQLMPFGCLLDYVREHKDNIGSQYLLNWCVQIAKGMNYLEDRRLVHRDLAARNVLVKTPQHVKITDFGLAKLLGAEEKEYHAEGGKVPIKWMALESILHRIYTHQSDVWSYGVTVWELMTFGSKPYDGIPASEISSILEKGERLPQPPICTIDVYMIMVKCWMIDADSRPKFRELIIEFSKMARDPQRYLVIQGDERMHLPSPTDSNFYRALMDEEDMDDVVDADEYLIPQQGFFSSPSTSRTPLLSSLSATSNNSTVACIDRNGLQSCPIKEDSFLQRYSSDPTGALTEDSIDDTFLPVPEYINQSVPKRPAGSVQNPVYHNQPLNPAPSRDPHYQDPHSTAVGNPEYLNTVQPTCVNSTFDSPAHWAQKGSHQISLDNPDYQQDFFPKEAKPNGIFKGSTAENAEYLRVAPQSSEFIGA

Structure (SMILES)	IC50 [1, 5]	IC50 ([1]; Homo sapiens, NCI-H1975, 72 h, Table 3, H1975 cells)	IC50 [2, 6]	IC50 ([2]; Homo sapiens, PC-9, 72 h, Table 3, PC-9 cells)	IC50 [3, 7]	IC50 ([3]; Homo sapiens, HCC827, 72 h, Table 3, HCC827 cells)	Dmax ([4]; HCC827, Table 4)	Dmax ([4]; HCC827, Table 5)	DC50 ([4]; Table 4)	DC50 ([4]; Table 5)	IC50 ([1]; Table 2, H1975 cells)	IC50 ([2]; Table 2, PC-9 cells)	IC50 ([3]; Table 2, HCC827 cells)	Dmax(%) ([4]; Table 4)
CNC(=O)c1ccccc1Nc1nc(Nc2ccc(N3CCN(C(=O)CN4CCC(c5ccc(NC6CCC(=O)NC6=O)cc5)CC4)CC3)cc2OC)ncc1Cl (centres unmarked) [Compound T-184]	≤ 10 nM	7.72 nM	100 to 1000 nM	122 nM	10 to 100 nM	14.2 nM	70 to 100%	70.8%	10 to 100 nM	10.2 nM				
CNC(=O)c1ccccc1Nc1nc(Nc2ccc(N3CCN(C(=O)CN4CCC(c5ccc(NC6CCC(=O)NC6=O)cc5)CC4)CC3)cc2OC)ncc1Br (centres unmarked) [Compound T-185]	≤ 10 nM		100 to 1000 nM		10 to 100 nM		70 to 100%		≤ 10 nM					
COc1cc(N2CCN(C(=O)CN3CCC(c4ccc(NC5CCC(=O)NC5=O)cc4)CC3)CC2)ccc1Nc1ncc(Cl)c(Nc2ccccc2C(=O)C(C)C)n1 (centres unmarked) [Compound T-190]	10 to 100 nM		100 to 1000 nM		100 to 1000 nM		50 to 70%		≥ 1000 nM					
COc1cc(N2C3CCC2CN(C(=O)CN2CCC(c4ccc(NC5CCC(=O)NC5=O)cc4)CC2)C3)ccc1Nc1ncc(Cl)c(Nc2ccccc2C(C)=O)n1 (centres unmarked) [Compound T-191]	10 to 100 nM		100 to 1000 nM		100 to 1000 nM		50 to 70%		100 to 1000 nM					
COc1cc(N2CCN(C(=O)CN3CCC(c4ccc(NC5CCC(=O)NC5=O)cc4)CC3)CC2)ccc1Nc1ncc(Cl)c(Nc2ccccc2C(=O)N(C)C)n1 (centres unmarked) [Compound T-198]	≤ 10 nM		100 to 1000 nM		100 to 1000 nM		50 to 70%		≤ 10 nM					
COc1nc(N2CCN(C(=O)CN3CCC(c4ccc(NC5CCC(=O)NC5=O)cc4)CC3)CC2)ccc1Nc1ncc(Cl)c(Nc2ccccc2P(C)(C)=O)n1 (centres unmarked) [Compound T-203]	10 to 100 nM		100 to 1000 nM		10 to 100 nM		50 to 70%		10 to 100 nM					
COc1cc(N2CCC(N3CCN(C(=O)CN4CCC(c5ccc(NC6CCC(=O)NC6=O)cc5)CC4)CC3)CC2)ccc1Nc1ncc(Cl)c(Nc2ccccc2N(C)S(C)(=O)=O)n1 (centres unmarked) [Compound T-211]	10 to 100 nM		100 to 1000 nM		10 to 100 nM		50 to 70%		10 to 100 nM					
COc1cc(N2CCC(N3CCN(C(=O)CCCCN4CCC(c5ccc(NC6CCC(=O)NC6=O)cc5)CC4)CC3)CC2)ccc1Nc1ncc(Cl)c(Nc2ccccc2N(C)S(C)(=O)=O)n1 (centres unmarked) [Compound T-220]	10 to 100 nM		100 to 1000 nM		100 to 1000 nM		< 50%		10 to 100 nM					
COc1cc(N2CCC(N3CCN(C(=O)CCCCN4CCN(c5ccc6c(c5)C(=O)N(C5CCC(=O)NC5=O)C6=O)CC4)CC3)CC2)ccc1Nc1ncc(Cl)c(Nc2ccccc2C(C)=O)n1 (centres unmarked) [Compound T-221]	100 to 1000 nM		≥ 1000 nM		≥ 1000 nM		< 50%		100 to 1000 nM					
COc1cc(N2CCC(N(C)C(=O)CN3CCC(c4ccc(NC5CCC(=O)NC5=O)cc4)CC3)CC2)ccc1Nc1ncc(C(F)(F)F)c(Nc2ccccc2C(C)=O)n1 (centres unmarked) [Compound T-224]									10 to 100 nM		10 to 100 nM	100 to 1000 nM	100 to 1000 nM	C (C<50%)
COc1cc(N2CCN(C(=O)CN3CCC(c4ccc(NC5CCC(=O)NC5=O)cc4)CC3)CC2)ccc1Nc1ncc(Cl)c(Nc2ccccc2N(C)S(C)(=O)=O)n1 (centres unmarked) [Compound T-227]	≤ 10 nM		10 to 100 nM		10 to 100 nM		50 to 70%		10 to 100 nM					
COc1cc(N2CCN(C(=O)CN3CCC(c4ccc(NC5CCC(=O)NC5=O)cc4)CC3)CC2)c(-c2cnn(C)c2)cc1Nc1ncc(Cl)c(Nc2ccccc2C(C)=O)n1 (centres unmarked) [Compound T-233]	10 to 100 nM		100 to 1000 nM		10 to 100 nM		50 to 70%		10 to 100 nM					
COc1cc(N2CCN(C(=O)CN3CCC(c4ccc(NC5CCC(=O)NC5=O)cc4)CC3)CC2)ncc1Nc1ncc(C(F)(F)F)c(Nc2ccccc2C(C)=O)n1 (centres unmarked) [Compound T-246]	≤ 10 nM		10 to 100 nM		10 to 100 nM		70 to 100%		≤ 10 nM					
CNC(=O)c1ccccc1Nc1nc(Nc2cc(C)c(N3CCN(C(=O)CN4CCC(c5ccc(NC6CCC(=O)NC6=O)cc5)CC4)CC3)cc2OC)ncc1Cl (centres unmarked) [Compound T-254]	≤ 10 nM		10 to 100 nM		10 to 100 nM		70 to 100%		10 to 100 nM					
CC(=O)c1ccccc1Nc1nc(Nc2ccc(N3CCN(C(=O)CN4CCC(c5ccc(NC6CCC(=O)NC6=O)cc5)CC4)CC3)cc2Cl)ncc1Cl (centres unmarked) [Compound T-333]	100 to 1000 nM		100 to 1000 nM		100 to 1000 nM		< 50%		10 to 100 nM					
COc1cc(C2CCN(C(=O)CN3CCC(c4ccc(NC5CCC(=O)NC5=O)cc4)CC3)CC2)ccc1Nc1ncc(Cl)c(Nc2ccccc2C(C)=O)n1 (centres unmarked) [Compound T-334]	100 to 1000 nM		100 to 1000 nM		100 to 1000 nM		< 50%		100 to 1000 nM					
C=CC(=O)Nc1cc(Nc2ncc(Cl)c(Nc3ccccc3)n2)c(OC)cc1N1CCN(C(=O)CN2CCC(c3ccc(NC4CCC(=O)NC4=O)cc3)CC2)CC1 (centres unmarked) [Compound T-335]	100 to 1000 nM		100 to 1000 nM		100 to 1000 nM		50 to 70%		100 to 1000 nM					
COc1cc(N2CCC(NC(=O)CN3CCC(c4ccc(NC5CCC(=O)NC5=O)cc4)CC3)CC2)ccc1Nc1ncc(Cl)c(Nc2ccccc2C(C)=O)n1 (centres unmarked) [Compound T-336]	100 to 1000 nM		100 to 1000 nM		100 to 1000 nM		< 50%		10 to 100 nM					
